These results are taken from patent publication US20240226115A1, “AXL INHIBITOR COMPOUNDS” (ARCUS BIOSCIENCES, INC., priority 2021, published 2024).

What is called IC50 is the point on the concentration scale where inhibition reaches its midpoint. A lower IC50 goes with inhibition by little substance.

The target in test [1] is T1, Axl (Homo sapiens, UniProt P30530).
T1 sequence (P30530 26-894): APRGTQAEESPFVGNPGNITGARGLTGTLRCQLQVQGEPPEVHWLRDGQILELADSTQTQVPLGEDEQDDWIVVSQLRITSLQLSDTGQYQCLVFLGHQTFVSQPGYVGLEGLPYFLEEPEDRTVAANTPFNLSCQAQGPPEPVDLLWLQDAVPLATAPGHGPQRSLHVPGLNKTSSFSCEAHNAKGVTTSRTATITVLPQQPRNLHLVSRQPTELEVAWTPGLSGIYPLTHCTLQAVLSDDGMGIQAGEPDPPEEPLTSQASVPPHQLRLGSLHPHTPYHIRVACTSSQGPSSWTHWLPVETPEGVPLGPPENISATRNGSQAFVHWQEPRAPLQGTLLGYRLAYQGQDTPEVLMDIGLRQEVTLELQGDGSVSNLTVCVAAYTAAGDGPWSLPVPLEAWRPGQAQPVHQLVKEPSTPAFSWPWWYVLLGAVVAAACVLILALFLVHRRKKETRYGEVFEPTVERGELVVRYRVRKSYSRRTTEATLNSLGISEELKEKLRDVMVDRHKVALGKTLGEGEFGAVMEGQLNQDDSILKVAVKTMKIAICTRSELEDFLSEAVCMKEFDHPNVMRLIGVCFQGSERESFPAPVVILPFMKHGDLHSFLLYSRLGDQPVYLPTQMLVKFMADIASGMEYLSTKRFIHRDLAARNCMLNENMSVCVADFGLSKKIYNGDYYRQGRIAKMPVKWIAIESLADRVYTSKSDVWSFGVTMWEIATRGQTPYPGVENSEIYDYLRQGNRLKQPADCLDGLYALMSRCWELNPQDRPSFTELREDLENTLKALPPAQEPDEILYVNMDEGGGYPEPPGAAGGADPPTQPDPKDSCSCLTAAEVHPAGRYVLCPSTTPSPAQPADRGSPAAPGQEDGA
Kind of test: HTRF KinEASE-TK biochemical potency, AXL. Further details: purchased Invitrogen. The conditions noted are these: 5 nM AXL, 700 μM ATP. As for the experimental part: Purified recombinant human AXL, TYRO3 and MER proteins were purchased from Invitrogen™. 10 nM AXL, 2 nM TYRO3 or MER were incubated with varying concentrations of compounds in 50 mM HEPES, pH 7.4, 10 mM MgCl2, 0.01% BSA, 1 mM DTT and 2% DMSO in a total volume of 20 μl in a 384-well microplate (Corning™ #3640) at RT for 1 h. The AXL, TYRO3 and MER enzymatic reaction was initiated by transferring 10 μl of enzyme and compound mixture into 10 μl of 1.6 μM TK Substrate-biotin (HTRF® KinEASE-TK kit, Cisbio) and 1400 μM ATP pre-incubated in 50 mM HEPES, pH 7.4, 10 mM MgCl2, 0.01% BSA, 1 mM DTT in a 384-well microplate (Corning™ #3640) at RT, giving the final reaction conditions: 5 nM AXL, 1 nM TYRO3 or MER, 800 nM TK Substrate-biotin and 700 μM ATP in 50 mM HEPES, pH 7.4, 10 mM MgCl2, 0.01% BSA, 1 mM DTT and 1% DMSO with varying concentrations of compounds. Following 2 h incubation at RT, the AXL, TYRO3 and MER enzymatic reaction was stopped by transfer of 10 μl of reaction into 10 μl of detection mix (400 nM Streptavidin-XL665, 200-fold dilution TK Antibody-Cryptate and detection buffer, HTRF® KinEASE-TK kit, Cisbio) in a white 384-well microplate (Perkin Elmer, OptiPlate 384). After 1 h incubation at RT, the plate was put into a plate reader (Evision) to read at 665/620 nm (acceptor/donor) for HTRF. The value of the DMSO blank (MIN inhibition=100% activity) was used as a negative control. The positive control was established by adding 5 μl of enzyme and DMSO mixture into 10 μl of detection mix followed by addition of 5 μl of TK Substrate-biotin and ATP mixture (MAX inhibition=0% activity). To calculate the percent activity, Equation 1 was used. Ratio665/620 is the value at a given compound concentration: […]
In general terms: TR-FRET usually uses a lanthanide donor and a delayed reading to cut background.

Test [2] addresses T1, Axl. The test can be described thus: Axl NanoBRET intracellular kinase assay (Cell Binding). Further details: host or cells: HEK-293. As to conditions: HEK-293 cells transfected with Axl-NanoLuc fusion vector; displacement of K-5 NanoBRET tracer. As for the experimental part:
Axl NanoBRET™ intracellular kinase assay (Promega, N2540) was performed according to manufacturer's recommendation. In brief, HEK-293 cells are transiently transfected with Axl-NanoLuc fusion vector (Promega, NV1071), utilizing Fugene HD transfection reagent (Promega, E2311) a day before experiment following manufacturer's recommendation.
The day of the assay, the cells were collected and resuspended in Opti-MEM media (ThermoFisher, 31985070) at 2e5 cells/mL concentration. Testing compounds were serial diluted and dispensed into a white 384 well polystyrene plate at 200 nL in 100% DMSO. 40 μL of resuspended cells is then added per well for a final condition of 8K cells/well with 0.5% DMSO. After one-hour compound pre-incubation at 37° C. and 5% CO2, cells were further incubated with 0.35 μM K-5 NanoBRET tracer for two-hours at 37° C. and 5% CO2. […] of 3× substrate plus Inhibitor solution was prepared according to kits manual and added to the cells followed by a 30 second pulse centrifugation spin. The plate was then immediately read utilizing an Envision (Perkin Elmer) plate reader. The BRET signal is measured by taking the ratio of the emissions reading at 610 nm and 450 nm. Compound binding is based on the decrease BRET signal caused by the displacement of the K-5 tracer. […] IC50 value of compounds was determined by 4-parameter non-linear regression fitting of percent activity in GraphPad Prism software.

Regarding `O=C1NCCOc2cc(-c3n[nH]c4ncc(-c5ccc6c(c5)CCN(C(=O)C5CC5)CC6)cc34)ccc21` [Example 17, 8-[5-(3-Cyclopropanecarbonyl-2,3,4,5-tetrahydro-1H-3-benzazepin-7-yl)-1H-pyrazolo[3,4-b]pyridin-3-yl]-2,3,4,5-tetrahydro-1,4-benzoxazepin-5-one], the concentration for half-maximal inhibition (IC50) against Axl [1] was under 100 nM; at Axl [2], 100 to 1000 nM.
In the case of `CC(C)(O)C(=O)N1CCc2ccc(-c3cnc4[nH]nc(-c5ccc6c(c5)OCCNC6=O)c4c3)cc2CC1` [Example 19, 8-(5-(3-(2-Hydroxy-2-methylpropanoyl)-2,3,4,5-tetrahydro-1H-benzo[d]azepin-7-yl)-1H-pyrazolo[3,4-b]pyridin-3-yl)-3,4-dihydrobenzo[f][1,4]oxazepin-5(2H)-one], the IC50 is under 100 nM at Axl [1] and 100 to 1000 nM at Axl [2].
For `O=C1NCCOc2cc(-c3n[nH]c4ncc(-c5ccc6c(c5)CCN(C5CC5)CC6)cc34)ccc21` [Example 20, 8-(5-(3-Cyclopropyl-2,3,4,5-tetrahydro-1H-benzo[d]azepin-7-yl)-1H-pyrazolo[3,4-b]pyridin-3-yl)-3,4-dihydrobenzo[f][1,4]oxazepin-5(2H)-one] the same measures were under 100 nM and 100 to 1000 nM.
For `O=C1NCCOc2cc(-c3n[nH]c4ncc(-c5ccc6c(c5)CCN(C5CC5)C6)cc34)ccc21` [Example 21, 8-(5-(2-Cyclopropyl-1,2,3,4-tetrahydroisoquinolin-6-yl)-1H-pyrazolo[3,4-b]pyridin-3-yl)-3,4-dihydrobenzo[f][1,4]oxazepin-5(2H)-one] the same measures were under 100 nM and 100 to 1000 nM.
For `CC1(N2CCCC2)CCc2ccc(-c3cnc4[nH]nc(-c5ccc6c(c5)OCCNC6=O)c4c3)cc2CC1` (stereo not drawn) [Example 22, 8-{5-[7-Methyl-7-(pyrrolidin-1-yl)-6,7,8,9-tetrahydro-5H-benzo[7]annulen-2-yl]-1H-pyrazolo[3,4-b]pyridin-3-yl}-2,3,4,5-tetrahydro-1,4-benzoxazepin-5-one] the same measures were under 100 nM and under 100 nM.
In the case of `C[C@@H]1CCCN1C1(C)CCc2ccc(-c3cnc4[nH]nc(-c5ccc6c(c5)OCCNC6=O)c4c3)cc2CC1` (stereo partly drawn) [Example 23, 8-(5-{7-Methyl-7-[(2R)-2-methylpyrrolidin-1-yl]-6,7,8,9-tetrahydro-5H-benzo[7]annulen-2-yl}-1H-pyrazolo[3,4-b]pyridin-3-yl)-2,3,4,5-tetrahydro-1,4-benzoxazepin-5-one], the IC50 against Axl [1] and at Axl [2] was under 100 nM in each case.
Turning to `C[C@H]1CCCN1C1(C)CCc2ccc(-c3cnc4[nH]nc(-c5ccc6c(c5)OCCNC6=O)c4c3)cc2CC1` (stereo partly drawn) [Example 24, 8-(5-{7-Methyl-7-[(2S)-2-methylpyrrolidin-1-yl]-6,7,8,9-tetrahydro-5H-benzo[7]annulen-2-yl}-1H-pyrazolo[3,4-b]pyridin-3-yl)-2,3,4,5-tetrahydro-1,4-benzoxazepin-5-one], the IC50 against Axl [1] and on Axl [2] was under 100 nM each time.
`CC[C@@H]1CCCN1C1CCc2ccc(-c3cnc4[nH]nc(-c5ccc6c(c5)OCCNC6=O)c4c3)cc2CC1` (stereo partly drawn) [Example 25, 8-(5-{7-[(2R)-2-Ethylpyrrolidin-1-yl]-6,7,8,9-tetrahydro-5H-benzo[7]annulen-2-yl}-1H-pyrazolo[3,4-b]pyridin-3-yl)-2,3,4,5-tetrahydro-1,4-benzoxazepin-5-one]: the IC50 on Axl [1] and on Axl [2] was under 100 nM throughout.
For the compound `CC1(O)CCOc2cc(-c3n[nH]c4ncc(-c5ccc6c(c5)CCN(C5CCCC5)CC6)cc34)ccc21` (stereo not drawn) [Example 26, 7-[5-(3-Cyclopentyl-2,3,4,5-tetrahydro-1H-3-benzazepin-7-yl)-1H-pyrazolo[3,4-b]pyridin-3-yl]-4-methyl-3,4-dihydro-2H-1-benzopyran-4-ol], the values for the IC50 against Axl [1] and at Axl [2] were under 100 nM and 100 to 1000 nM, respectively.
